Key:
[1] = target: T1, human melatonin 2 receptors (human MT2 receptors) (Homo sapiens, UniProt P49286); assay: Melatonin receptor binding inhibitory test (MT2); conditions: 2-[125I] Iodomelatonin 1 nM solution, membrane fraction of CHO-hMT2 cells, 25° C. for 2.5 hr
T1 construct: expressed in transfected cells
T1 sequence (P49286 1-362): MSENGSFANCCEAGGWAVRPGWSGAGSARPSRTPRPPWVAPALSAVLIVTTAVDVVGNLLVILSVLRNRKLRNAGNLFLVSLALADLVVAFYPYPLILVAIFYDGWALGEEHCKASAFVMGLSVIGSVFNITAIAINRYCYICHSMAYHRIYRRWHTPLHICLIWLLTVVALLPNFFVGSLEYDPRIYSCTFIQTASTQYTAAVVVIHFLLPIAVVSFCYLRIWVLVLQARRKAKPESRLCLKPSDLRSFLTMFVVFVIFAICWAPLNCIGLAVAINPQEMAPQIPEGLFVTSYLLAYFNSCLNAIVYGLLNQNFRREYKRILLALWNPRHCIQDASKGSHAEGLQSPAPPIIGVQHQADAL
Protocol: Melatonin Receptor Binding Inhibitory Test (2) Preparation of CHO-hMT2 Cells Expressing Human Melatonin 2 Receptors A cDNA fragment (SEQ ID NO: 2) encoding full-length of human melatonin 2 receptors (human MT2 receptors) was incorporated into expression vector pCMV-Script (Stratagene, #212220) to give the plasmid that was pCMV-human MT2 receptors expression vector for animal cell expression. CHO-K1 cells (ATCC, #CCL-61) were plated at the concentration of 1.5×10^5 cells/cm^2 in a 6 well plate (ASAHI TECHNO GLASS), and cultured under the conditions of 37° C., 5% CO2 for 24 hr. For gene transfection, solution obtained by blending pCMV-human MT2 receptors expression vector (1.9 μg), Lipofectamine Transfection Reagent (Invitrogen, #18324-012) (11.3 μL) and Minimum Essential Medium Eagle (MEM) medium (Sigma, M8042) (93.8 μL), and reacting at room temperature for 20 min was added to the cells per one well. The transfected cells were cultured in MEM medium containing 10% FBS (Life Technology) and 300 μg/mL Geneticin (GIBCO, #10131), and the cell line that stably expressed the plasmid gene was selected. By a receptor binding assay using 2-[^125I] […] (3) Preparation of Cellular Membrane Fraction of CHO Cell (CHO-hMelR7 and CHO-hMT2) Stably Expressing Human MT1 and MT2 Receptors CHO-hMelR7 and CHO-hMT2 cells were plated using Cellfactory (Nunc, #170009) under the conditions of 1×10^8 cells/2000 mL/flask. The cells were grown to confluent, and recovered by the following method. As the medium for CHO-hMelR7 and CHO-hMT2, MEM α containing 10% FBS and penicillin/streptomycin was used. 300 ng/mL of geneticin was added to the medium for CHO-hMT2. The medium was discarded, cells were washed twice with 200 mL of EDTA/PBS(-), 200 mL of EDTA/PBS(-) was further added, and the cells were stood still at room temperature for 20 min until they were released. The cells were recovered in four 50 mL tubes (Becton Dickinson, #352070), and centrifuged at 1,500 rpm for 10 min at 4° C. using a low speed cooling centrifuge (Hitachi, CF7D2). The supernatant was discarded, the pellets in the four tubes were suspended in 10 mL of PBS(-), and combined in one tube (Becton Dickinson, #352070). The mixture was further centrifuged at 1,500 rpm for 10 min at 4° C., and the obtained pellets were suspended in 20 mL of ice-cooled homogenizing buffer [10 mM NaHCO3, 5 mM EDTA, Protease inhibitor Complete (Roche), pH 7.4]. The cell suspension was homogenized 3 times using a polytron homogenizer at 20,000 rpm for 30 sec. The obtained homogenate was centrifuged (2,000 rpm, 10 min, 4° C.) using a low speed cooling centrifuge. The supernatant was recovered in an ultracentrifugation tube and ultracentrifuged (40,000 rpm, 60 min, 4° C.) using an ultracentrifuge (Beckman, […]). To the obtained pellets was added a suspending buffer [50 mM Tris-HCl, 1 mM EDTA, Protease inhibitor Complete (Roche), pH 7.4], and the pellets were suspended by pipetting. The protein concentration of this suspension was measured, diluted to 2 mg/mL to give cellular membrane fractions of CHO-hMelR7 and CHO-hMT2 cells. […] Protein was quantified using BCA protein assay kit (Pierce) with BSA as the standard. (4) Preparation of Membrane Fraction Suspension Immediately before use, the membrane fractions of CHO-hMelR7 and CHO-hMT2 cells of the above-mentioned (3) were diluted 20-fold with assay buffer (50 mM Tris-HCl, pH 7.7). (5) Preparation of 2-[^125I] […] (6) Binding Reaction The assay buffer (80 μL) of the above-mentioned (4) was added to each well of a 96-well plate (type 3363, Corning). […] (7) Measurement Using a cell harvester (PerkinElmer), the binding reaction mixture in each well of the 96-well plate was transferred to a treated (immersed in 50 mM Tris, pH 7.7 in advance) filter plate (UniFilter GF/C, PerkinElmer) and filtered.

Question: With `CC(=O)NCCC1CCc2cnc3c(c21)CCO3` (single isomer, unassigned) [Example 20, optically active N-[2-(1,6,7,8-tetrahydro-2H-cyclopenta[d]furo[2,3-b]pyridin-8-yl)ethyl]acetamide] as the compound, how does the IC50 [1] read?
Answer: ≤ 100 nM

Question: Which IC50 [1] does the source give for `CCC(=O)NCCC1CCc2cnc3c(c21)CCO3` (single isomer, unassigned) [Example 23, optically active N-[2-(1,6,7,8-tetrahydro-2H-cyclopenta[d]furo[2,3-b]pyridin-8-yl)ethyl]propanamide] here?
Answer: ≤ 100 nM

Question: Which IC50 [1] does the source give for `CCC(=O)NCCc1c(-c2ccccc2)nn2ccc3occc3c12` [Example 2, N-[2-(2-phenylfuro[3,2-c]pyrazolo[1,5-a]pyridin-1-yl)ethyl]propanamide] here?
Answer: ≤ 100 nM

Question: What about the melting point of the same compound?
Answer: 161 to 163 °C

Question: Which IC50 [1] does the source give for `CC(=O)NCCc1cnn2ccc3c(c12)CCO3` [Example 3, N-[2-(8,9-dihydrofuro[3,2-c]pyrazolo[1,5-a]pyridin-1-yl)ethyl]acetamide] here?
Answer: ≤ 100 nM

Question: What about the melting point of the same compound?
Answer: 174 to 175 °C

Question: What does the source list for `CCC(=O)NCCc1cnn2ccc3c(c12)CCO3` [Example 4, N-[2-(8,9-dihydrofuro[3,2-c]pyrazolo[1,5-a]pyridin-1-yl)ethyl]propanamide]?
Answer: IC50 [1]: ≤ 100 nM; melting point: 96 to 97 °C

Question: For `CCCC(=O)NCCc1cnn2ccc3c(c12)CCO3` [Example 5, N-[2-(8,9-dihydrofuro[3,2-c]pyrazolo[1,5-a]pyridin-1-yl)ethyl]butanamide], which IC50 [1] is on record?
Answer: ≤ 100 nM

Question: And the melting point?
Answer: 58 to 59 °C

Question: With `CCC(=O)NCCc1c(-c2ccccc2)nn2ccc3c(c12)CCO3` [Example 8, N-[2-(2-phenyl-8,9-dihydrofuro[3,2-c]pyrazolo[1,5-a]pyridin-1-yl)ethyl]propanamide] as the compound, how does the IC50 [1] read?
Answer: ≤ 100 nM

Question: And the melting point?
Answer: 169 to 170 °C

Question: What does the source list for `CC(=O)NCCc1c(-c2ccc(F)cc2)nn2ccc3c(c12)CCO3` [Example 15, N-{2-[2-(4-fluorophenyl)-8,9-dihydrofuro[3,2-c]pyrazolo[1,5-a]pyridin-1-yl]ethyl}acetamide]?
Answer: IC50 [1]: ≤ 100 nM; melting point: 160 to 162 °C

Question: With `CCC(=O)NCCc1c(-c2ccc(F)cc2)nn2ccc3c(c12)CCO3` [Example 16, N-{2-[2-(4-fluorophenyl)-8,9-dihydrofuro[3,2-c]pyrazolo[1,5-a]pyridin-1-yl]ethyl}propanamide] as the compound, how does the IC50 [1] read?
Answer: ≤ 100 nM

Question: And the melting point?
Answer: 170 to 171 °C

Question: Which IC50 [1] does the source give for `CC(=O)NCCc1c(-c2ccccc2)cn2ccc3c(c12)CCO3` [Example 17, N-[2-(8-phenyl-1,2-dihydrofuro[2,3-g]indolizin-9-yl)ethyl]acetamide] here?
Answer: ≤ 100 nM

Question: For `CCC(=O)NCCC1CCc2cnc3c(c21)CCO3` (stereo not shown) [Example 22, N-[2-(1,6,7,8-tetrahydro-2H-cyclopenta[d]furo[2,3-b]pyridin-8-yl)ethyl]propanamide], which IC50 [1] is on record?
Answer: ≤ 100 nM

Question: With `CCCC(=O)NCCC1CCc2cnc3c(c21)CCO3` (stereo not shown) [Example 25, N-[2-(1,6,7,8-tetrahydro-2H-cyclopenta[d]furo[2,3-b]pyridin-8-yl)ethyl]butanamide] as the compound, how does the IC50 [1] read?
Answer: ≤ 100 nM

Question: For `CCC(=O)NCCC1=CCc2cnc3c(c21)CCO3` [Example 29, N-[2-(1,6-dihydro-2H-cyclopenta[d]furo[2,3-b]pyridin-8-yl)ethyl]propanamide], which IC50 [1] is on record?
Answer: ≤ 100 nM

Question: And the melting point?
Answer: 111 to 112 °C

Question: For `CC(=O)NCCC1=C(C(C)C)Cc2cnc3c(c21)CCO3` [Example 30, N-[2-(7-isopropyl-1,6-dihydro-2H-cyclopenta[d]furo[2,3-b]pyridin-8-yl)ethyl]acetamide], which IC50 [1] is on record?
Answer: ≤ 100 nM

Question: And the melting point?
Answer: 164 to 166 °C

Question: What does the source list for `CCC(=O)NCCC1=C(C(C)C)Cc2cnc3c(c21)CCO3` [Example 31, N-[2-(7-isopropyl-1,6-dihydro-2H-cyclopenta[d]furo[2,3-b]pyridin-8-yl)ethyl]propanamide]?
Answer: IC50 [1]: ≤ 100 nM; melting point: 168 to 170 °C

Question: Which results are given for `CCc1nn2ccc3c(c2c1C(C)CNC(C)=O)CCO3` (stereo not shown) [Example 37, N-[2-(2-ethyl-8,9-dihydrofuro[3,2-c]pyrazolo[1,5-a]pyridin-1-yl)propyl]acetamide]?
Answer: IC50 [1]: ≤ 100 nM; melting point: 151 to 153 °C

Question: What does the source list for `CCC(=O)NCC(C)c1c(CC)nn2ccc3c(c12)CCO3` (stereo not shown) [Example 38, N-[2-(2-ethyl-8,9-dihydrofuro[3,2-c]pyrazolo[1,5-a]pyridin-1-yl)propyl]propanamide]?
Answer: IC50 [1]: ≤ 100 nM; melting point: 173 to 175 °C

Question: Which IC50 [1] does the source give for `CCc1nn2ccc3oc(C)cc3c2c1CCNC(C)=O` [Example 39, N-[2-(2-ethyl-8-methylfuro[3,2-c]pyrazolo[1,5-a]pyridin-1-yl)ethyl]acetamide] here?
Answer: ≤ 100 nM

Question: And the melting point?
Answer: 128 to 129 °C

Reference: US8273761B2, “Tricyclic compound and medical use thereof” (Takeda Pharmaceutical Company Limited, priority 2006, dated 2012)
